Among the data in a melting point compilation (Tetko et al.) are melting point values, retold here.

The compound `CCOC(=O)c1nc(NCc2ccccc2)sc1C` displayed a melting point of 98 to 100 °C. For `CCOC(=O)C(C)NC(=O)c1ccc(N)cc1` (stereo not given) the value was 127 to 129 °C. The value for `Cn1c(S)nc2cc(S(N)(=O)=O)ccc21` was 313 to 315 °C. For `O=C1CC2(CCCc3ccccc32)C(=O)O1` (stereo not given) the value was 99 to 101 °C. Compound `Nc1nnc(-c2cccc([N+](=O)[O-])c2)o1` had a melting point of 256 to 258 °C. The value for `COc1cc(C=O)ccc1OCC(F)(F)F` was 66 to 68 °C; that for `Nc1sc2c(c1C(=O)c1ccc(C(F)(F)F)cc1)CCC2` was 200 to 202 °C.

In the case of `O=C(O)C=Cc1cnc2ccccc2n1`, the melting point lay within 233 to 235 °C. For `O=C1Nc2cc(F)c([N+](=O)[O-])cc2C1=O` the value was 236 to 238 °C. The value for `Fc1ccc(Nc2nnc(S)s2)cc1` was 185 to 187 °C; that for `CNc1ccc([N+](=O)[O-])cc1C(=O)O` was 261 to 263 °C. For `O=C(O)CCOc1ccc(Br)cc1`, the melting point was 145 to 147 °C.

`O=C(Nc1cnccn1)C1CCCNC1` (stereo not given) registered a melting point of 141 to 143 °C.

`COc1cc(C(C)=O)ccc1OCC(=O)O` registered a melting point of 165 to 167 °C. In the case of `Nc1nccnc1CO`, the melting point was 115 to 117 °C. For `O=C(O)C=CC1CCCCC1` the value was 54 to 56 °C; for `CCc1oc(C(=O)O)cc1C`, 133 to 135 °C. The value for `Cc1sc(=O)[nH]c1C(C)C` was 129 to 131 °C; that for `Cc1cc(Br)cc2c(O)c(C#N)cnc12` was 349 to 351 °C. `CCOC(=O)CS(N)(=O)=O` displayed a melting point of 62 to 64 °C. For `O=[N+]([O-])c1cc(O)cc(F)c1` the value was 111 to 113 °C; for `O=C1CCCc2c1[nH]c1ccc(Br)cc21`, 189 to 191 °C; for `COC(=O)c1cc(C)c(C)c(S(=O)(=O)Cl)c1`, 61 to 63 °C. On to `Nc1nc2cc(F)c(F)cc2[nH]1`, for which the melting point is 144 to 146 °C. For `Cc1ccc(OCc2nc(C(=O)O)cs2)cc1` the value was 198 to 200 °C. As to `CCOC(=O)c1ncoc1-c1ccco1`, the melting point lay within 93 to 95 °C.

`O=Cc1sc(N2CCOCC2)nc1-c1ccccc1` yielded a melting point of 181 to 183 °C.

In the case of `Cc1cc(F)c(N)c(I)c1`, the melting point was 32 to 34 °C. The value for `Cc1nn(C(F)F)c(C)c1CO` was 86 to 88 °C; that for `O=S(=O)(c1ccc(OCCBr)cc1)N1CCOCC1` was 137 to 138 °C.

The compound `CCOCCNC(=O)c1cccc(Br)c1` had a melting point of 62 to 64 °C. As to `CCC(=O)N(C)c1ccccc1C(=O)O`, the melting point was 193 to 195 °C. For `COC(=O)c1cc(S(=O)(=O)Cl)cn1C` the value was 78 to 80 °C.

With `O=C(O)CNC(=O)c1ccc(F)c(F)c1`, the melting point lay within 180 to 182 °C.

On to `CCOC(=O)c1cc2cc(C(=O)O)ccc2[nH]1`, for which the melting point fell in the range of 247 to 249 °C. For `CC(=O)N1CCCCC1CC(=O)O` (stereo not given) the value was 112 to 114 °C; for `CCc1cc(C(=O)O)nn1C`, 119 to 121 °C; for `O=Cc1cnn(Cc2ccccc2Cl)c1`, 54 to 56 °C.

Regarding `CC(C)c1ccc(-c2nn(-c3ccccc3)cc2C(=O)O)cc1`, the melting point was in the range of 222 to 224 °C. The value for `CC1CCc2c(sc3nc(S)nc(S)c23)C1` (stereo not given) was 337 to 339 °C; that for `Cc1c(C(=O)O)nnn1-c1ccc(F)cc1` was 181 to 183 °C; that for `Cc1ccc(-c2nnc(Cl)c3ccccc23)cc1` was 145 to 147 °C.

On to `O=[N+]([O-])c1c(CCl)nc2ccccn12`, for which the melting point was in the range of 152 to 154 °C. `NS(=O)(=O)c1ccc(C(F)(F)F)cn1` yielded a melting point of 174 to 176 °C.

With `Clc1nc(-c2ccccn2)nc2scc(-c3ccccc3)c12`, the melting point was 160 to 162 °C. For `CS(=O)(=O)c1cccc(C(N)=O)c1` the value was 177 to 179 °C; for `CS(=O)(=O)Nc1ccccc1N`, 102 to 104 °C. For `CC(C)CC(=O)NNC(=O)C(C)Cl` (stereo not given) the value was 174 to 176 °C; for `CC(C)NC(=O)c1ccc(C(=O)O)cc1`, 179 to 181 °C; for `O=C(O)Cn1cc2ccccc2n1`, 248 to 250 °C. For `CC1CCC2C(=O)N(C)C(=O)C2C1C(=O)O` (stereo not given) the value was 151 to 153 °C; for `Nc1ccc(C(=O)NCCN2CCOCC2)cc1`, 157 to 159 °C; for `Cc1c(S(=O)(=O)Cl)cnn1-c1ccccc1Cl`, 98 to 100 °C. The compound `OCC(c1ccc(Cl)cc1)N1CCNCC1` (stereo not given) came in with a melting point of 116 to 118 °C.

Take `CCOc1ccc(C(=O)CC(=O)C(=O)OC)cc1`: the melting point lay in the range of 88 to 92 °C. For `Nc1ccccc1CSc1ccc(C(F)(F)F)cn1` the value was 74 to 76 °C; for `Oc1cn(-c2ccccc2)nn1`, 160 to 162 °C. Consider `COc1cccc(C2CC(=O)CC(=O)C2)c1`, for which the melting point was 131 to 133 °C. The value for `O=c1ccc(-n2cncn2)n[nH]1` was 240 to 242 °C.

As to `[N-]=[N+]=Nc1cccc2ncccc12`, the melting point is 61 to 63 °C. The value for `O=[N+]([O-])c1ccc2oc(CCl)nc2c1` was 115 to 117 °C.

Regarding `O=C(O)c1ccc2c(=O)[nH]c(CCl)nc2c1`, the melting point lay in the range of 344 to 346 °C.

`COc1ccc2[nH]c3c(c2c1)CC(C)CC3` (stereo not given) gave a melting point of 59 to 61 °C. The value for `Cc1cc(C)cc(C(=O)N2CCNCC2)c1` was 125 to 127 °C.

`CCn1c(N)nc2ccccc21` displayed a melting point of 152 to 154 °C. For `O=C(O)c1csc2cncn12`, the melting point is 229 to 231 °C. `CNS(=O)(=O)c1ccc(Sc2ccccc2C(=O)O)cc1`: the melting point lay within 199 to 201 °C. The value for `Nc1cc(Cl)ccc1NCc1ccccc1` was 77 to 81 °C; that for `CC(C)(C)OC(=O)Nc1cc(Br)ccc1C(=O)O` was 179 to 181 °C. The value for `Cc1cc(C)c2c(N)c(C(=O)O)sc2n1` was 145 to 147 °C; that for `c1ccc(-c2nc[nH]n2)cc1` was 117 to 119 °C. `CCOC(=O)/C(C#N)=C\Nc1cc(OC)ccc1OC`: the melting point was 131 to 133 °C.

In turn, `Cc1cc(N2CCNC(=O)C2)ccc1CN` displayed a melting point of 154 to 156 °C. The value for `COc1cc(C=O)c([N+](=O)[O-])cc1O` was 207 to 209 °C; that for `O=C(O)c1c[nH]nc1-c1cccc(Cl)c1` was 251 to 253 °C. The value for `Nc1noc(-c2ccc(Cl)cc2)n1` was 255 to 257 °C. For `CN(CC(=O)Nc1ccccc1C(F)(F)F)C(=O)CCl` the value was 123 to 125 °C. `COC(=O)c1ccc(S(N)(=O)=O)c([N+](=O)[O-])c1` showed a melting point of 139 to 141 °C. In the case of `Cc1cc(C(=O)CBr)ccc1O`, the melting point fell in the range of 119 to 121 °C. The value for `Cc1nn(C)c2c1NC(=O)CO2` was 219 to 221 °C.

The compound `Cn1cc(C(=O)O)ccc1=O` came in with a melting point of 236 to 238 °C. For `O=C(O)C=CC(=O)c1ccc(F)c(F)c1` the value was 114 to 116 °C. On to `N#Cc1[nH]c(=O)n(Cc2ccccc2)c1NCc1ccccc1`, for which the melting point is 140 to 142 °C. The value for `Sc1nnc(-c2cccs2)n1-c1ccccc1` was 269 to 271 °C; that for `O=C(O)c1cccc(Oc2ccc(Cl)cc2)n1` was 115 to 117 °C. For `O=C(O)c1c[nH]cc1-c1cc(Cl)c2c(c1)OCCO2` the value was 209 to 211 °C; for `Nc1cccn(Cc2ccccc2)c1=O`, 119 to 121 °C. The value for `CC1(C)CC(=O)NC1=O` was 103 to 105 °C; that for `O=C(O)c1ccc(CN2CCCCC2=O)cc1` was 181 to 183 °C; that for `O=C(O)CC(Br)C(=O)c1ccc(Br)cc1` (stereo not given) was 109 to 111 °C. The compound `O=C1CC(C(=O)O)C(C(=O)O)C1` (stereo not given) registered a melting point of 186 to 188 °C. The value for `Cc1cc(N2CCOCC2)ccc1N` was 89 to 91 °C; that for `C=CS(=O)(=O)c1ccc(C(C)(C)C)cc1` was 91 to 93 °C. The value for `CCc1ccccc1N(C(C)=O)c1nc(CN=C=S)cs1` was 96 to 98 °C.

On to `CC(C)N1C(=O)C(=O)c2ccccc21`, for which the melting point lay within 77 to 79 °C.

`CCOc1ccc(CN2C(=O)c3ccccc3C2=O)cc1C(=O)O` displayed a melting point of 172 to 174 °C. `COc1ccccc1C1CC1C(=O)O` (stereo not given) came in with a melting point of 137 to 139 °C. The value for `Cc1ccn(-c2ccc(C(=O)O)cc2)n1` was 178 to 180 °C; that for `NC(=S)Nc1cccc(Oc2ccccc2)c1` was 119 to 121 °C.

Compound `O=C(Nc1nccs1)OCC(F)(F)F` displayed a melting point of 167 to 169 °C. For `O=C(Cc1ccc(Cl)cc1)N1CCNCC1` the value was 105 to 107 °C.

On to `O=c1cc(Cl)nc2ccc(Cl)cn12`, for which the melting point was 219 to 221 °C. The value for `O=C(O)CCn1ncc2ccc([N+](=O)[O-])cc21` was 151 to 153 °C; that for `Fc1ccc(-c2cnc(S)o2)cc1` was 252 to 254 °C; that for `COc1cc(C=C2CCCc3c2nc2ccccc2c3C(=O)O)cc(OC)c1OC` was 249 to 251 °C. For `N#Cc1cc(Cl)nc2ccc([N+](=O)[O-])cc12` the value was 173 to 175 °C.

Regarding `O=C(O)CNC(=O)c1cccc([N+](=O)[O-])c1`, the melting point lay in the range of 90 to 92 °C. As to `O=C(CO)Nc1ccc(C(F)(F)F)cc1`, the melting point lay within 104 to 106 °C.

In the case of `Cc1ccc(N)cc1S(=O)(=O)N(C)C`, the melting point is 80 to 84 °C. For `Cc1ccc2ncc(C(=O)O)c(O)c2c1` the value was 269 to 271 °C. The value for `Nc1cc2ccccc2c(=O)[nH]1` was 319 to 321 °C; that for `OCc1ccc2[nH]nnc2c1` was 146 to 148 °C; that for `O=Cc1cn(-c2ccccc2)nn1` was 97 to 99 °C. The value for `NC(=O)c1c[nH]c2ccccc12` was 201 to 203 °C; that for `Cc1cc(Sc2nccn2C)ccc1N` was 101 to 103 °C; that for `CN(C)S(=O)(=O)c1cccc(C#N)c1` was 128 to 130 °C. Take `O=S(=O)(Cl)c1cccc2ncccc12`: the melting point is 121 to 123 °C.

In turn, `Cc1cc(C(=O)CCl)c(C)n1NC(=O)c1ccccc1` gave a melting point of 141 to 143 °C. The value for `NC(=O)N1CCc2ccccc2C1` was 170 to 172 °C; that for `CN(C)S(=O)(=O)c1ccnc(N)c1` was 148 to 150 °C.

For orientation: melting point means the temperature, or range, at which the solid turns liquid.
